Results on 14 compounds are retold here after article PMC8700061, “Fragment-Sized and Bidentate (Immuno)Proteasome Inhibitors Derived from Cysteine and Threonine Targeting Warheads” (Cells, 2021).

The target of one series is T1, hMAO-B (Homo sapiens, UniProt P27338).
T1 construct: purchased Sigma Aldrich; host or cells: BTI-TN-5B1-4 insect cells
T1 sequence (P27338 1-520): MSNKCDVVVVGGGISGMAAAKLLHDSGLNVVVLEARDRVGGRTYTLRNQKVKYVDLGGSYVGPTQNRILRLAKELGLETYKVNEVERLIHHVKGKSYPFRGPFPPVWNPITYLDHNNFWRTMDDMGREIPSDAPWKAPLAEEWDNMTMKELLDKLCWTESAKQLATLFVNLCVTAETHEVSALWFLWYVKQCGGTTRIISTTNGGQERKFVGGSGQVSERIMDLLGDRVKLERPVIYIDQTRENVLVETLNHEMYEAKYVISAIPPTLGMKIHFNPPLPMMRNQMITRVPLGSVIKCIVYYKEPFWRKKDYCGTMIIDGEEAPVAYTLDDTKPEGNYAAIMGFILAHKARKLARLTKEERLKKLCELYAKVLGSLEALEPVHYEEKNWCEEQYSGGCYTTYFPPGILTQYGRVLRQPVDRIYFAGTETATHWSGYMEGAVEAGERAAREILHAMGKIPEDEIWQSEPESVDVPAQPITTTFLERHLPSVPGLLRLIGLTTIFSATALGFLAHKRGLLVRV
The series can be described thus: Monoamine oxidase assay, hMAO-B. The following applies: 30 min pre-incubation, read-out: Residual activity [%] ± SD, hMAO-B. The class given is biochemical. The procedure:
The effects of the test compounds on hMAO were investigated using fluorimetric assay. Recombinant hMAO-A and hMAO-B, expressed in BTI-TN-5B1-4 insect cells, horseradish peroxidase type II and p-tyramine hydrochloride were purchased from Sigma Aldrich. Amplex Red was synthesized as previously described.
Briefly, 50 mM sodium phosphate buffer (pH = 7.4, 0.05 vol.% Triton X-114) containing the compounds or the reference inhibitors and hMAO were incubated at 37 °C for 30 min. The reaction was started by adding Amplex Red (final concentration, 250 µM), horseradish peroxidase (final activity, 1 U/mL), and p-tyramine (final concentration, 1 mM). The increase in fluorescence (λex = 530 nm, λem = 590 nm) was monitored for 30 min at 37 °C. DMSO at a concentration of 1.5% (v/v) was used for the control experiments. For the determination of blank (b), the enzyme was replaced by phosphate-buffered solution. Each measurement was performed in duplicate. Inhibitory potencies were expressed as residual activities (RA), as described under the Cholinesterase assay section.

The next series addresses T2, β5 subunit of human cCP (Homo sapiens, UniProt P20618+P28074).
T2 construct: purchased Boston Biochem, Inc., Cambridge, MA, USA
Briefly: Inhibition of β5 activity (RA, IC50), Suc-LLVY-AMC. It counts as biochemical. The following applies: 30 min pre-incubation, SDS. The procedure:
(§1) Residual activity measurements were performed at 10 μM final concentrations in the assay buffer (0.01% SDS, 50 mM Tris-HCl, 0.5 mM EDTA, pH 7.4). Stock solutions of the compounds were prepared in DMSO. To 50 μL of each compound in buffer, 25 μL of 0.8 nM human iCP or human cCP (both from Boston Biochem, Inc., Cambridge, MA, USA) were added. After incubation at 37 °C for 30 min, the reaction was started by adding of 25 μL of 100 μM relevant fluorogenic substrate: acetyl-Nle-Pro-Nle-Asp-AMC (Ac-nLPnLD-AMC, (Bachem, Bubendorf, Switzerland)) for β1, acetyl-Pro-Ala-Leu-7-amino-4-methylcoumarin (Ac-PAL-AMC, (Boston Biochem, Inc., Cambridge, MA, USA)) for β1i, t-butyloxycarbonyl-Leu-Arg-Arg-7-amino-4-methylcoumarin (Boc-LRR-AMC, (Bachem, Bubendorf, Switzerland)) for β2 and β2i, succinyl-Leu-Leu-Val-Tyr-7-amino-4-methylcoumarin (Suc-LLVY-AMC) (Bachem, Bubendorf, Switzerland) for β5 and β5i. Reaction progress was recorded on BioTek Synergy HT microplate reader by monitoring fluorescence at 460 nm (λex = 360 nm) for 90 min at 37 °C. The initial linear ranges were used to calculate velocity and determine residual activity. In the case of evaluation of β1, βi, β2, and β2i activities, the assay buffer was modified by replacing SDS with the proteasomal activator PA28α (Boston Biochem, Inc., Cambridge, MA, USA).
(§2) Final assay mixtures contained 0.2 nM human iCP or 0.2 nM human cCP in assay buffer (0.01% SDS (or PA28α in cases of β1, β1i subunits), 50 mM Tris-HCl, 0.5 mM EDTA, pH 7.4). Inhibitors were dissolved in DMSO and added to the black 96-well plates for at least eight different concentrations (the final concentration of DMSO was not more than 1%). After 30 min of incubation at 37 °C, the reaction was started by adding the substrate Suc-LLVY-AMC (for β5 and β5i) or Ac-nLPnLD-AMC (for β1) or Ac-PAL-AMC (for β1i). Fluorescence was monitored at 460 nm (λex = 360 nm) for 90 min at 37 °C. The progress of the reactions was recorded and the initial linear ranges were used to calculate the velocity. IC50 values were calculated using GraphPadPrism (GraphPad Software, San Diego, CA, USA) and are means from at least three independent determinations.

The target in a further series is T3, β1 subunit of human cCP (Homo sapiens, UniProt P28072+Q99436).
T3 construct: purchased Boston Biochem, Inc., Cambridge, MA, USA
The series can be described thus: Inhibition of β1 activity (RA, IC50), Ac-nLPnLD-AMC. The class given is biochemical. The settings on record: PA28α; for IC50: 30 min pre-incubation. The protocol: as §1, §2

The next series concerns the target T4, β2 subunit of human cCP (Homo sapiens, UniProt P49720+Q99436).
T4 construct: purchased Boston Biochem, Inc., Cambridge, MA, USA
Briefly: Residual β2 activity, Boc-LRR-AMC. It counts as biochemical. The settings on record: PA28α; for β2 (RA [%]): 10 µM; for remaining activity at 10 µM: Table 3, read-out: β2 (RA [%]). The procedure:
as §1

A short description of series [1]: HPLC-based stability assay in PBS. The settings on record: PBS pH 7.4. The class given is physicochemical. The protocol: GSH reactivity assay was performed as described by Petri et al.; 500 μM solution of compound (PBS buffer pH 7.4, 10% MeCN, 250 μL) with 200 μM solution of indoprofen as internal standard were added to 10 mM GSH solution (dissolved in PBS buffer, 250 μL) in a 1:1 ratio. The final concentration was 250 μM compound, 100 μM indoprofen, 5 mM GSH and 5% MeCN (500 μL). The final mixture was analyzed by HPLC after 0, 1, 2, 4, 8, 12, 24, 48, and 72 h. The degradation kinetics were also studied using the method described in [24], except that pure PBS buffer was used instead of GSH solution. In this experiment, the final concentration of the mixture was 250 μM fragment, 100 μM indoprofen and 5% MeCN. The area under the curve (AUC) values were determined by integrating the HPLC spectra and then corrected with the internal standard.

Marks after values point to notes of the source that are not given here.

As for `CC(C)C[C@H](NC(=O)Cc1ccc2oc(C#N)nc2c1)B(O)O` [Compound 40], at hMAO-B, the remaining activity at 100 µM stood at 44%. The figures for the IC50 on β5 subunit of human cCP and on β1 subunit of human cCP were 2 ± 0.7 µM and 3.7 ± 0.9 µM, respectively. Moreover, the “β2 (RA [%])” value on β2 subunit of human cCP (Table 6) is listed as “NA (NA, Not active (RA above 95%))”.

`N#Cc1nc2cc(O)ccc2o1` [Compound 11]: at hMAO-B, the remaining activity at 100 µM was 29%. The “β5 (RA [%]) at 10 µM” value at β5 subunit of human cCP was determined as 53% ^c. The remaining activity at 10 µM on β1 subunit of human cCP (10 µM, Table 3) was more than 90%; at β2 subunit of human cCP it was more than 90%.

As for `CC(C)C[C@H](NC(=O)CCCn1c(C#N)nc2ccccc21)B1O[C@@H]2C[C@@H]3C[C@@H](C3(C)C)[C@]2(C)O1` [Compound 31], the remaining activity at 100 µM at hMAO-B is more than 50%. Further, the “Stability in Buffer (HPLC-based assay)” value in series [1] was “stable ^b,c”. For the same compound, the IC50 at β5 subunit of human cCP stood at 13 ± 4 µM; on β1 subunit of human cCP it was 8.4 ± 1.6 µM. Also, the “β2 (RA [%])” value at β2 subunit of human cCP (Table 6) is “NA (NA, Not active (RA above 95%))”.

Turning to `CC(=O)Oc1cccc2oc(C#N)nc12` [Compound 14], on hMAO-B, the remaining activity at 100 µM was more than 50%. Also, the “β5 (RA [%]) at 10 µM” value at β5 subunit of human cCP stood at 56% ^c. Further, the remaining activity at 10 µM was more than 90% at β1 subunit of human cCP (10 µM, Table 3) and more than 90% at β2 subunit of human cCP.

In the case of `CC(C)C[C@H](NC(=O)CCn1c(C#N)nc2ccccc21)B1O[C@@H]2C[C@@H]3C[C@@H](C3(C)C)[C@]2(C)O1` [Compound 30], on hMAO-B, the remaining activity at 100 µM was more than 50%. In addition, the “Stability in Buffer (HPLC-based assay)” value in series [1] is “stable ^b,c”. Also, the values for the IC50 on β5 subunit of human cCP and at β1 subunit of human cCP were 0.7 ± 0.1 µM and 0.4 µM, respectively. Further, the “β2 (RA [%])” value at β2 subunit of human cCP (Table 6) is recorded as “NA (NA, Not active (RA above 95%))”.

Consider `CC(C)C[C@H](NC(=O)Cc1ccc2oc(C#N)nc2c1)B1O[C@@H]2C[C@@H]3C[C@@H](C3(C)C)[C@]2(C)O1` [Compound 39], for which the remaining activity at 100 µM on hMAO-B came out at 47 ± 1%. Further, the “Stability in Buffer (HPLC-based assay)” value in series [1] is reported as “stable ^b,c”. The IC50 at β5 subunit of human cCP worked out at 3.6 ± 1.1 µM; at β1 subunit of human cCP, 2.9 ± 0.4 µM. Also, the “β2 (RA [%])” value on β2 subunit of human cCP (Table 6) was “NA (NA, Not active (RA above 95%))”.

Take `N#Cc1nc2c(O)cccc2o1` [Compound 10]: the remaining activity at 100 µM on hMAO-B was more than 50%. Moreover, the IC50 at β5 subunit of human cCP stood at 30 ± 12 µM. Moreover, the remaining activity at 10 µM on β1 subunit of human cCP (10 µM, Table 3) was more than 90%; at β2 subunit of human cCP it was more than 90%.

`CC(C)C[C@H](NC(=O)CCCn1c(C#N)nc2ccccc21)B(O)O` [Compound 35]: the remaining activity at 100 µM on hMAO-B is more than 50%. In addition, the IC50 at β5 subunit of human cCP worked out at 16 ± 8 µM; at β1 subunit of human cCP, 13 ± 2 µM. In addition, the “β2 (RA [%])” value at β2 subunit of human cCP (Table 6) is “NA (NA, Not active (RA above 95%))”.

`CC(C)C[C@H](NC(=O)CCn1c(C#N)nc2ccccc21)B(O)O` [Compound 34]: at hMAO-B, the remaining activity at 100 µM was more than 50%. For the same compound, the IC50 amounted to 1.8 ± 0.4 µM on β5 subunit of human cCP and 3.2 ± 0.2 µM at β1 subunit of human cCP. The “β2 (RA [%])” value on β2 subunit of human cCP (Table 6) is given as “NA (NA, Not active (RA above 95%))”.

Turning to `CC(C)C[C@H](NC(=O)CCn1c(C#N)nc2cccc(Cl)c21)B1O[C@@H]2C[C@@H]3C[C@@H](C3(C)C)[C@]2(C)O1` [Compound 38], the remaining activity at 100 µM at hMAO-B was found to be 42%. In series [1], the “Stability in Buffer (HPLC-based assay)” value is reported as “stable ^b,c”. Besides, the IC50 at β5 subunit of human cCP amounted to 2 ± 0.7 µM; on β1 subunit of human cCP, 5 ± 0.1 µM. In addition, the “β2 (RA [%])” value at β2 subunit of human cCP (Table 6) is “NA (NA, Not active (RA above 95%))”.

On to `CC(=O)Oc1ccc2oc(C#N)nc2c1` [Compound 15], for which the remaining activity at 100 µM at hMAO-B was 33%. Besides, the “β5 (RA [%]) at 10 µM” value at β5 subunit of human cCP is 55% ^c. Besides, the remaining activity at 10 µM at β1 subunit of human cCP (10 µM, Table 3) was more than 90%; on β2 subunit of human cCP, more than 90%.

Regarding `N#Cc1nc2cccc(O)c2o1` [Compound 13], the remaining activity at 100 µM at hMAO-B was more than 50%. Moreover, on β5 subunit of human cCP, the IC50 was found to be 11 ± 9 µM. The remaining activity at 10 µM was determined as 76% on β1 subunit of human cCP (10 µM, Table 3) and 71% on β2 subunit of human cCP.

Regarding `COc1cccc2oc(C#N)nc12` [Compound 6], the remaining activity at 100 µM on hMAO-B was 35 ± 1%. The “Stability in Buffer (HPLC-based assay)” value in series [1] is “stable ^c,d”. Further, the “β5 (RA [%]) at 10 µM” value at β5 subunit of human cCP turned out to be 63% ^c. For the same compound, the “β1 (RA [%])” value on β1 subunit of human cCP (10 µM, Table 3) is on record as 82%. The “β2 (RA [%])” value at β2 subunit of human cCP (Table 3) is “NA (NA, Not active (RA above 90%))”.

On to `C=Cc1nc(CC(=O)N[C@@H](CC(C)C)B2O[C@@H]3C[C@@H]4C[C@@H](C4(C)C)[C@]3(C)O2)cs1` [Compound 28], for which the remaining activity at 100 µM on hMAO-B is more than 50%. Besides, the IC50 on β5 subunit of human cCP was 8.2 µM; at β1 subunit of human cCP, 4.8 ± 0.2 µM. Besides, the “β2 (RA [%])” value at β2 subunit of human cCP (Table 6) is “NA (NA, Not active (RA above 95%))”.
